Among the data in ChEMBL document CHEMBL1145484, “Evaluation of the metS and murB loci for antibiotic discovery using targeted antisense RNA expression analysis in Bacillus anthracis” (2007) are MIC values, retold here.

The structures appear in SMILES notation. ≈ marks a conversion by molar mass, not a printed value.

The test relates to Bacillus anthracis. The test is described as follows: Antibacterial activity against Bacillus anthracis UM23C1-1. In kind it is functional.

Consider `O=C(O)c1ccc(OCc2nc3ccccc3[nH]2)c(OCc2ccc(Cl)cc2Cl)c1`, for which the lowest concentration to inhibit growth (MIC) was 2 µg/mL (≈ 4.51 µM).
